Test results: US20250034127A1, “AUTOPHAGY INDUCING COMPOUNDS AND USES THEREOF, IN PARTICULAR FOR DISEASES OF THE CNS” (Samsara Therapeutics Inc., priority 2021, published 2025)

Test system: primary culture of dopaminergic Tyrosine hydroxylase (TH)-positive neurons
Assay: Cellular model of Parkinson's disease (MPTP/MPP+ injury)
Format: cell-based, rat
From the text: This model (run by Neuro-Sys SAS, France) is based on a primary culture of dopaminergic Tyrosine hydroxylase (TH)-positive neurons injured with the dopaminergic neurons-specific toxin (DA-toxin) 1-methyl-4-phenyl-1,2,3,6 tetrahydropyridine (MPTP, a prodrug of MPP^+) (Dauer and Przedborski, 2003). Any substances reducing DA-toxin neurotoxicity may be useful as a new therapeutic agent for the treatment or prevention of PD.
Primary culture of mesencephalic neurons: Rat dopaminergic neurons were cultured as described by Visanji et al., 2008 and Callizot et al., 2019. Briefly, pregnant female rat (Wistar) of 15 days of gestation were killed using a deep anesthesia with CO2 chamber and a cervical dislocation. The midbrains obtained from 15-day-old rat embryos (Janvier, France) were dissected under a microscope. The embryonic midbrains will be removed and placed in ice-cold medium of Leibovitz (L15) containing 2% of Penicillin-Streptomycin (PS) and 1% of bovine serum albumin (BSA). The ventral portion of the mesencephalic flexure, a region of the developing brain rich in dopaminergic neurons, was used for the cell preparations.
The midbrains were dissociated by trypsinisation for 20 min at 37° C. (solution at a final concentration of 0.05% trypsin and 0.02% EDTA). The reaction was stopped by the addition of Dulbecco's modified Eagle's medium (DMEM) containing DNAase I grade II (0.5 mg/mL) and 10% of foetal calf serum (FCS). Cells were then mechanically dissociated by 3 passages through a 10 ml pipette. Cells were then centrifuged at 180×g for 10 min at +4° C. on a layer of BSA (3.5%) in L15 medium. The supernatant was discarded, and the cell pellets re-suspended in a defined culture medium consisting of Neurobasal supplemented with B27 (2%), L-glutamine (2 mM) and 2% of PS solution and 10 ng/mL of Brain-derived neurotrophic factor (BDNF) and 1 ng/ml of Glial-Derived Neurotrophic Factor (GDNF). Viable cells were counted in a Neubauer cytometer using the trypan blue exclusion test. The cells were seeded at a density of 40,000 cells/well in 96 well-plates (pre-coated with poly-L-lysine) and maintained in a humidified incubator at 37° C. in 5% CO2/95% air atmosphere. Half of the medium was changed every 2 days with fresh medium. The wells of first and last lines and columns […] (to avoid any edge effect) and were be filled with sterile water.
• i) Pre-incubation. On day 6 of culture, the test compounds were dissolved in PBS or DMSO and incubated for 1 hour before the MPTP exposure. • ii) Injury. One hour after the application of test compound, MPTP was added to a final concentration of 4 μM, diluted in control medium still in presence of compounds/inhibitors for 48 h. Test compounds were tested on one culture in 96-well plate (n=6 culture wells per condition).
Immunostaining: TH and α-Synuclein. 48 Hours after intoxication, the cell culture supernatant was removed, and the cells were fixed by a solution of 4% paraformaldehyde in PBS, pH=7.3 for 20 min at room temperature. The cells were washed twice in PBS, and then permeabilized. Non-specific sites were blocked with a solution of PBS containing 0.1% of saponin and 1% FCS for 15 min at room temperature. The cultures were incubated with: (a) monoclonal anti-Tyrosine Hydroxylase (TH) antibody produced in mouse at dilution of 1/10000 in PBS containing 1% FCS, 0.1% saponin, for 2 hours at room temperature, and (b) polyclonal anti-alpha synuclein (α-synuclein) antibody produced in rabbit at dilution of 1/200 in PBS containing 1% FCS, 0.1% saponin, for 2 h at room temperature.
Automatic computer analysis. For each condition, 20 pictures (representing the whole well area) were automatically taken using ImageXpress® (Molecular Devices) at 10× magnification (20 pictures, for TH and α-synuclein into TH neurons) using the same acquisition parameters. From images, analyses was directly and automatically performed by MetaXpress® (Molecular Devices). […]

[1] = 500 nM, compared to MPP+ injury alone

SMILES: CCN1CCC(N(C)C(=O)c2csc(-c3cnn(-c4ccccc4)c3)n2)CC1 [Compound 196, N-(1-ethylpiperidin-4-yl)-N-methyl-2-(1-phenyl-1H-pyrazol-4-yl)-1,3-thiazole-4-carboxamide]
- effects in the in vitro model of PD based on MPP+ injury: positive effects
- decrease in α-syn area per dopaminergic TH positive neuron (100 nM, compared to MPP+ injury alone): 26%
- decrease in α-syn area per dopaminergic TH positive neuron [1]: 35%
- increase in the number of dopaminergic TH positive neurons [1]: 26%
- decrease in α-syn area per dopaminergic TH positive neuron (1 μM, compared to MPP+ injury alone): 19%
